Test results published in the supplement of paper PMC10307832.

What was measured:
Assay in all cases: relative viability (nuclei count vs DMSO), 5 days (fraction); higher = more cells survive
NCI-H1792 = test system: NCI-H1792
In short: (§1)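 Medians of duplicate plates are given as relative viability. That measure is the nuclei count in treated wells divided by the count in vehicle wells. Counts were taken on 4× images of lung cancer cell lines in 1536-well plates, 5 days after pin-tool dosing the day after seeding with one drug alone or a fixed anchor-drug dose plus five library-drug doses (not always all listed) in √10 steps.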

NCI-H1993 = test system: NCI-H1993
In short: as §1

HCC-15 = test system: HCC-15
In short: as §1

NCI-H838 = test system: NCI-H838
In short: as §1

NCI-H358 = test system: NCI-H358
In short: as §1

COR-L23 = test system: COR-L23
In short: as §1

NCI-H647 = test system: NCI-H647
In short: as §1

NCI-H1395 = test system: NCI-H1395
In short: as §1

NCI-H1734 = test system: NCI-H1734
In short: as §1

NCI-H2009 = test system: NCI-H2009
In short: as §1

NCI-H1755 = test system: NCI-H1755
In short: as §1

NCI-H1793 = test system: NCI-H1793
In short: as §1

UMC-11 = test system: UMC-11
In short: as §1

HOP-62 = test system: HOP-62
In short: as §1

NCI-H522 = test system: NCI-H522
In short: as §1

NCI-H2170 = test system: NCI-H2170
In short: as §1

COR-L 105 = test system: COR-L 105
In short: as §1

NCI-H1355 = test system: NCI-H1355
In short: as §1

SK-MES-1 = test system: SK-MES-1
In short: as §1

NCI-H2228 = test system: NCI-H2228
In short: as §1

NCI-H2347 = test system: NCI-H2347
In short: as §1

HARA = test system: HARA
In short: as §1

## CCN(CC)CCCCNc1ncc2cc(-c3cc(OC)cc(OC)c3)c(NC(=O)NC(C)(C)C)nc2n1 + O=C(c1cc(Cc2n[nH]c(=O)c3ccccc23)ccc1F)N1CCN(C(=O)C2CC2)CC1 [Olaparib] (partner 8 µM)
NCI-H1792; first compound 0.01 µM
  relative viability: 0.547
NCI-H1792; first compound 0.03162 µM
  relative viability: 0.475
NCI-H1792; first compound 0.1 µM
  relative viability: 0.668
NCI-H1792; first compound 0.3162 µM
  relative viability: 0.77
NCI-H1792; first compound 1 µM
  relative viability: 0.317
NCI-H1993; first compound 0.01 µM
  relative viability: 1.01
NCI-H1993; first compound 0.03162 µM
  relative viability: 1.01
NCI-H1993; first compound 0.1 µM
  relative viability: 1.14
NCI-H1993; first compound 0.3162 µM
  relative viability: 1.26
NCI-H1993; first compound 1 µM
  relative viability: 0.99
HCC-15; first compound 0.01 µM
  relative viability: 0.681
HCC-15; first compound 0.03162 µM
  relative viability: 0.777
HCC-15; first compound 0.1 µM
  relative viability: 0.783
HCC-15; first compound 0.3162 µM
  relative viability: 0.82
HCC-15; first compound 1 µM
  relative viability: 0.728
NCI-H838; first compound 0.01 µM
  relative viability: 0.824
NCI-H838; first compound 0.03162 µM
  relative viability: 0.835
NCI-H838; first compound 0.1 µM
  relative viability: 0.743
NCI-H838; first compound 0.3162 µM
  relative viability: 0.745
NCI-H838; first compound 1 µM
  relative viability: 0.603
NCI-H358; first compound 0.01 µM
  relative viability: 0.683
NCI-H358; first compound 0.03162 µM
  relative viability: 0.642
NCI-H358; first compound 0.1 µM
  relative viability: 0.744
NCI-H358; first compound 0.3162 µM
  relative viability: 0.69
NCI-H358; first compound 1 µM
  relative viability: 0.469
COR-L23; first compound 0.01 µM
  relative viability: 0.365
COR-L23; first compound 0.03162 µM
  relative viability: 0.378
COR-L23; first compound 0.1 µM
  relative viability: 0.368
COR-L23; first compound 0.3162 µM
  relative viability: 0.403
COR-L23; first compound 1 µM
  relative viability: 0.344
NCI-H647; first compound 0.01 µM
  relative viability: 0.476
NCI-H647; first compound 0.03162 µM
  relative viability: 0.732
NCI-H647; first compound 0.1 µM
  relative viability: 0.674
NCI-H647; first compound 0.3162 µM
  relative viability: 0.563
NCI-H647; first compound 1 µM
  relative viability: 0.393
NCI-H1395; first compound 0.01 µM
  relative viability: 0.46
NCI-H1395; first compound 0.03162 µM
  relative viability: 0.467
NCI-H1395; first compound 0.1 µM
  relative viability: 0.478
NCI-H1395; first compound 0.3162 µM
  relative viability: 0.497
NCI-H1395; first compound 1 µM
  relative viability: 0.431
NCI-H1734; first compound 0.01 µM
  relative viability: 0.595
NCI-H1734; first compound 0.03162 µM
  relative viability: 0.614
NCI-H1734; first compound 0.1 µM
  relative viability: 0.746
NCI-H1734; first compound 0.3162 µM
  relative viability: 0.638
NCI-H1734; first compound 1 µM
  relative viability: 0.569
NCI-H2009; first compound 0.01 µM
  relative viability: 0.828
NCI-H2009; first compound 0.03162 µM
  relative viability: 0.696
NCI-H2009; first compound 0.1 µM
  relative viability: 0.699
NCI-H2009; first compound 0.3162 µM
  relative viability: 0.75
NCI-H2009; first compound 1 µM
  relative viability: 0.7
NCI-H1755; first compound 0.01 µM
  relative viability: 0.874
NCI-H1755; first compound 0.03162 µM
  relative viability: 0.947
NCI-H1755; first compound 0.1 µM
  relative viability: 0.958
NCI-H1755; first compound 0.3162 µM
  relative viability: 1.01
NCI-H1755; first compound 1 µM
  relative viability: 0.934
NCI-H1793; first compound 0.01 µM
  relative viability: 0.676
NCI-H1793; first compound 0.03162 µM
  relative viability: 0.839
NCI-H1793; first compound 0.1 µM
  relative viability: 1.23
NCI-H1793; first compound 0.3162 µM
  relative viability: 0.926
NCI-H1793; first compound 1 µM
  relative viability: 0.54
UMC-11; first compound 0.01 µM
  relative viability: 0.39
UMC-11; first compound 0.03162 µM
  relative viability: 0.372
UMC-11; first compound 0.1 µM
  relative viability: 0.422
UMC-11; first compound 0.3162 µM
  relative viability: 0.353
UMC-11; first compound 1 µM
  relative viability: 0.422
HOP-62; first compound 0.01 µM
  relative viability: 0.608
HOP-62; first compound 0.03162 µM
  relative viability: 0.523
HOP-62; first compound 0.1 µM
  relative viability: 0.416
HOP-62; first compound 0.3162 µM
  relative viability: 0.823
HOP-62; first compound 1 µM
  relative viability: 0.383
NCI-H522; first compound 0.01 µM
  relative viability: 0.687
NCI-H522; first compound 0.03162 µM
  relative viability: 0.544
NCI-H522; first compound 0.1 µM
  relative viability: 0.708
NCI-H522; first compound 0.3162 µM
  relative viability: 0.85
NCI-H522; first compound 1 µM
  relative viability: 0.663
NCI-H2170; first compound 0.01 µM
  relative viability: 0.583
NCI-H2170; first compound 0.03162 µM
  relative viability: 0.559
NCI-H2170; first compound 0.1 µM
  relative viability: 0.655
NCI-H2170; first compound 0.3162 µM
  relative viability: 0.676
NCI-H2170; first compound 1 µM
  relative viability: 0.732
COR-L 105; first compound 0.01 µM
  relative viability: 0.805
COR-L 105; first compound 0.03162 µM
  relative viability: 0.62
COR-L 105; first compound 0.1 µM
  relative viability: 0.73
COR-L 105; first compound 0.3162 µM
  relative viability: 0.619
COR-L 105; first compound 1 µM
  relative viability: 0.696
NCI-H1355; first compound 0.01 µM
  relative viability: 0.789
NCI-H1355; first compound 0.03162 µM
  relative viability: 0.719
NCI-H1355; first compound 0.1 µM
  relative viability: 0.853
NCI-H1355; first compound 0.3162 µM
  relative viability: 0.83
NCI-H1355; first compound 1 µM
  relative viability: 0.737
SK-MES-1; first compound 0.01 µM
  relative viability: 0.913
SK-MES-1; first compound 0.03162 µM
  relative viability: 0.752
SK-MES-1; first compound 0.1 µM
  relative viability: 0.863
SK-MES-1; first compound 0.3162 µM
  relative viability: 0.735
SK-MES-1; first compound 1 µM
  relative viability: 0.727
NCI-H2228; first compound 0.01 µM
  relative viability: 0.799
NCI-H2228; first compound 0.03162 µM
  relative viability: 0.8
NCI-H2228; first compound 0.1 µM
  relative viability: 0.824
NCI-H2228; first compound 0.3162 µM
  relative viability: 0.547
NCI-H2228; first compound 1 µM
  relative viability: 0.571
NCI-H2347; first compound 0.01 µM
  relative viability: 0.585
NCI-H2347; first compound 0.03162 µM
  relative viability: 0.579
NCI-H2347; first compound 0.1 µM
  relative viability: 0.617
NCI-H2347; first compound 0.3162 µM
  relative viability: 0.655
NCI-H2347; first compound 1 µM
  relative viability: 0.602
HARA; first compound 0.01 µM
  relative viability: 0.697
HARA; first compound 0.03162 µM
  relative viability: 0.62
HARA; first compound 0.1 µM
  relative viability: 0.561
HARA; first compound 0.3162 µM
  relative viability: 0.811
HARA; first compound 1 µM
  relative viability: 0.443
